Results on five molecules are retold here after PMC11547452, “Synthesis of New Pyrazolo[3,4-d]pyrimidine Derivatives: NMR Spectroscopic Characterization, X-Ray, Hirshfeld Surface Analysis, DFT, Molecular Docking, and Antiproliferative Activity Investigations” (Molecules, 2024).

A value given as a limit tells only on which side of the number the result lay.

The nature of data set [1]: MTT cytotoxicity assay, WI38 normal cell line. The format is cell-based. As to conditions: human, WI38 normal cells; WI38 normal cell line; MTT; three different experiments; read-out: In Vitro Cytotoxicity IC50. The protocol: (§1) The antiproliferative activity of P1–P4 was evaluated by the MTT standard assay and sunitinib (a well-known FDA-approved multi-kinase inhibitor) as a reference against HCT 116, HepG2, and MCF-7 cell lines, and WI38 normal cell line. […] The antiproliferative activity of P1–P4 was assessed by using an MTT standard assay and sunitinib drug towards HCT 116, HepG2, MCF-7 cells, and WI38 normal cell line using the previously described methodology.
On the technique in general: Tetrazolium assays rely on reduction of a dye to a coloured formazan, in cell work by metabolically active cells.

Another data set concerns WI38 normal cell line. Put plainly: MTT cytotoxicity assay, WI38 normal cell line. The format is cell-based. As to conditions: cancer cell lines vs WI38 normal cell line; formula not given. The method, then: as §1
The next data set has as its system HCT 116. Put plainly: MTT antiproliferative assay, HCT 116. It counts as cell-based. Particulars: Homo sapiens, three different experiments, read-out: In Vitro Cytotoxicity IC50. The method, then:
as §1

A further data set concerns HepG2. Put plainly: MTT antiproliferative assay, HepG2. It counts as cell-based. Particulars: Homo sapiens, three different experiments, read-out: In Vitro Cytotoxicity IC50. The method, then: as §1
Another data set relates to MCF-7. Put plainly: MTT antiproliferative assay, MCF-7. The format is cell-based. Particulars: Homo sapiens, MCF7, three different experiments, read-out: In Vitro Cytotoxicity IC50. The protocol: as §1
Data set [2] deals with HCT 116, HepG2, and MCF-7 cell lines. Put plainly: MTT antiproliferative assay, summary over the tested cell lines. The format is cell-based. Particulars: across the tested cancer cell lines. The protocol: as §1

As usually defined, the IC50 is the concentration needed to halve the response being measured. With `CCN(CC)CCNC(=O)c1c(C)[nH]c(/C=C2\C(=O)Nc3ccc(F)cc32)c1C` [Sunitinib, sunitinib, reference compound], the IC50 in data set [1] came to 55.6 ± 3.3 µM. Moreover, in the data set on WI38 normal cell line, the “Selectivity Index” value is recorded as 0.30.

Regarding `Cc1nn(-c2ccccc2)c2ncn(CC(=O)c3ccccc3)c(=O)c12` [Compound P4, 3-Methyl-5-(2-oxo-2-phenylethyl)-1-phenyl-1,5-dihydro-4H-pyrazolo[3,4-d]pyrimidin-4-one], the IC50 is 92.5 ± 4.9 µM in the data set with HCT 116; 66.8 ± 3.8 µM in the data set with HepG2; more than 100 µM in the data set on MCF-7; 44 ± 2.6 µM in data set [1]; more than 67 µM in data set [2].

Usually melting point stands for the temperature, or range, at which the solid turns liquid. The molecule `Cc1nn(-c2ccccc2)c2nc[nH]c(=O)c12` [Compound P1, 3-methyl-1-phenyl-1,5-dihydro-4H-pyrazolo[3,4-d]pyrimidin-4-one] displayed a melting point of 153 to 155 °C. For the same molecule, the IC50 in the data set with HCT 116 worked out at 28.9 ± 2.1 µM. The IC50 in the data set with HepG2 was 22.7 ± 1.7 µM. In the data set on MCF-7, the IC50 was 36.3 ± 2.6 µM. For the same molecule, the IC50 in data set [1] worked out at 85.7 ± 4.7 µM. The same molecule registered an IC50 in data set [2] of 22.7 to 40.8 µM.

`Cc1nn(-c2ccccc2)c2ncn(C)c(=O)c12` [Compound P2, 3,5-Dimethyl-1-phenyl-1,5-dihydro-4H-pyrazolo[3,4-d]pyrimidin-4-one] yielded a melting point of 143 to 145 °C. For the same molecule, the IC50 in the data set with HCT 116 worked out at 38.7 ± 2.3 µM. Besides, in the data set with HepG2, the 50% inhibitory concentration (IC50) was determined as 31.9 ± 2.1 µM. Also, the IC50 in the data set on MCF-7 amounted to 40.8 ± 2.4 µM. In data set [1], the IC50 is more than 100 µM. Moreover, the IC50 in data set [2] is 22.7 to 40.8 µM.

Consider `C#CCn1cnc2c(c(C)nn2-c2ccccc2)c1=O` [Compound P3, 3-Methyl-1-phenyl-5-(prop-2-yn-1-yl)-1,5-dihydro-4H-pyrazolo[3,4-d]pyrimidin-4-one], for which the melting point lay within 155 to 157 °C. In addition, the IC50 in the data set on HCT 116 was determined as 89.9 ± 4.5 µM. The IC50 in the data set with HepG2 was 88.6 ± 4.7 µM. Also, in the data set with MCF-7, the IC50 was found to be 85.2 ± 4.4 µM. For the same molecule, the IC50 in data set [1] is 52.5 ± 3.1 µM. Also, in the data set with WI38 normal cell line, the “Selectivity Index” value is 1.67. In data set [2], this molecule had a half-maximal inhibitory concentration (IC50) of more than 67 µM.
